Values quoted from earlier work as cited in patent US20240108682A1, “COMPOSITIONS AND METHODS FOR INCREASING GLUTATHIONE LEVELS” (Lile Method Research, LLC, priority 2022, published 2024).

Details: Lu SC, Curr Top Cell Regul 36:95-116 (2000)

half-life of glutathione in the blood: seconds to minutes
Structure (SMILES): N[C@@H](CCC(=O)N[C@@H](CS)C(=O)NCC(=O)O)C(=O)O [glutathione, L-γ-glutamyl-L-cysteinylglycine]
